From patent US6423703B1, “Use of a porphyrin for producing a medicine reducing the number of eosinophils” (Sephra S.A.R.L., priority 1998, dated 2002)
Entries after “also recorded” stand apart in the source; their conditions may differ. Like-named read-outs stand apart in the source and are kept apart here.

Tests used:
[1] = test system: inflammation; details: Nagai et al, 1992; 30 mg/kg; adult rats and mice; cited from earlier work
[2] = test system: hyperbilirubinemia due to iatrogenic hemolysis; details: Vreman et al, 1990; i.v. 25 mg/kg; 24 hrs; Rhesus monkeys (new-born); cited from earlier work
[3] = test system: intestinal, splenic and hepatic hemoxygenesis; details: Vrema et al, 1988; p.o. 25 mg/kg; 6 hrs; new-born and adult rats; cited from earlier work
[4] = test system: peritoneal hypereosinophilia; assay: Ovalbumin-induced peritoneal hypereosinophilia in mice; format: in vivo, Swiss mice; details: 0.1 ml of 1 mM (3.1 mg/kg) intraperitoneal with ovalbumin challenge; 48 hrs; two mice
Experimental: Swiss mice (about 20 g) are immunised sub cutaneously twice (with a 6 day interval) with 100 μg of ovalbumin in 0.4 ml of a suspension at 4 mg/ml of Al(OH)3 in NaCl 0.9%. One week after the second injection, 0.2 ml of ovalbumin at 5 μg/ml of ovalbumin are administered by intraperitoneal injection. The control mice are injected with the vehicle only.
The mice are killed at different times (overdose of ether) and—after dissection —undergo a peritoneal wash with 6ml of NaCl 0.9% (heparinised). After slight massage, the liquid of the wash is collected and the cellular concentration is measured in a hemocytometer. Cytocentrifugation strips are made and coloured by the Wright colorant (kit RAL 555, Prolabo, France). The differential count of mononucleated (monocytes+macrophages+lymphocytes), eosinophil and neutrophil cells is carried out objectively×100 by immersion in oil. During the peritoneal washing of the control mice, the residual cells are essentially macrophages, whereas during the peritoneal washing of mice immunised by ovalbumin, an inflammatory infiltrate with the apparition of polynuclear eosinophils and neutrophils is observed.
The ZnPP-IX is Injected at the same time as the second injection of ovalbumin (OVA). […] The results are represented by FIGS. 4, 5 and 6. Each column represents the average for two mice at 48 hrs.

[5] = test system: neonatal jaundice; details: Rodgers et al, 1996; i.p. 25 mg/kg; 21 days; new-born rats; cited from earlier work
[6] = test system: human eosinophils; assay: Apoptosis and survival of purified human eosinophils in culture (cytology, blue trypan); format: cell-based; details: for Apoptosis of eosinophils (percentage of apoptotic eosinophils): ZnPP-IX 10 μM, IL-5 10 pM where present, RPMI 1640, average of three experiments; for Number of apoptotic cells: in the presence of IL-5
Experimental: A leukocyte-rich suspension is obtained after sedimentation of whole blood, anticoagulated in the presence of dextran T500 (4.5%). 35 ml of aliquots are added to 15 mi of Ficoll. After centrifugation (30 min, 1000×g) the mononucleated cells at the interface are eliminated. The pellet which contains neutrophils, eosinophils and the corpuscles is washed and subjected to an osmotic shock in order to eliminate the corpuscles. The magnetic cellular separation system (MACS; Miltenyi Biotec) is used to purify the eosinophils by negative selection [Hansel et al, 1991, J. Immunol. Meth. 145: 105-110]. Magnetic particles anti-CD16 (1 μl/1×10^6 cells) are added to the suspension of neutrophils and eosinophils at 4° C. and kept at this temperature for 40 minutes with several placement gain in solution. The suspension is then added at the summit of the separation column in the presence of a magnetic field, the tap open at the base. 30 ml of PBS/FCS is passed through the column and the effluent is recovered. The magnetically marked cells (neutrophils) remain in the column; the unmarked cells (eosinophils) are recovered in the effluent and washed. PBS=Phosphate buffered saline FCS=Foetal calf serum
The freshly purified eosinophils are again placed in suspension (1.5-3×10^5 cells per ml) in RPMI 1640 (Gibco BRL) supplemented with 0.1 mM non essential amino acids, 100 U/ml of penicillin, 10 μg of streptomycine, 10 mM of HEPES, 2 mM of glutamine and 10% FCS. The aliquots of 160 μl of cellular suspension are deposited in each of the wells of a 96 well tray (Costar) containing 20 μl of IL-5 as survival factor. Twenty μl of the substance to be studied in a precise concentration or 20 μl of the medium on its own as a control are deposited in the corresponding wells. The cellular viability and the percentage of apoptotic eosinophils are counted at 24 hrs and 48 hrs with the aid of the methods below.
Blue trypan makes it possible to evaluate cellular viability. The cellular suspension is added to an equal volume of blue trypan at 0.1% in PBS. The abso!ute number of cells excluding the blue trypan (=“living” cells) per unit volume is obtained by counting the cells in a hemocytometer (Mallassez).
Cytology: makes it possible to visualise the morphological modification of the eosinophils during apoptosis in vitro. The cellular suspension is cyto-centrifuged then the strips are coloured (kit RAL 555, Prolabo). The percentage of apoptotic cells is established by optical microscope according to their characteristic morphology (pyknotic nucleus with condensed chromatine or without a nucleus, reduction in the cells diameter, cytoplasmic condensation). The freshly isolated eosinophils from the blood circulation have a characteristic morphology in optical microscopy: a granular cytoplasm coloured red-orange by eosin and a very often bivobed nucleus. In the absence of survival factors such as IL-5, IL-3 or GM-CSF, the first morphological signs of apotosis of the eosinophils appear. The chromatin condenses and the nucleus of the eosinophil takes on a pyknotic appearance. This pyknotic appearance of the nucleus, standard in the course of apoptosis, is however rarely observed in the eosinophil, perhaps because of its brevity. Another morphological sign characteristic of apoptosis is the reduction of cellular volume which is very marked in the eosinophil (Beauvais et al, 1995, J, Leukoc. Biol. 57: 851-855). After 48 hours of incubation, the nuclear structures have disappeared in the majority of eosinophils which now appear in the form of anucleated vesicles.

[7] = Hintz et al, 1990; i.p. 37 mg/kg; 12 hrs; new-born rats; cited from earlier work
[8] = test system: neonatal jaundice; details: Qato et Maines, 1985; s.c. 25 mg/kg; 12 days; Rhesus monkeys and cynomolgus; cited from earlier work
[9] = test system: steroidogenesis; details: Trakshel et al, 1992; s.c. 31 mg/kg (2x −4j); 7 days; rats; cited from earlier work
[10] = test system: neonatal jaundice; details: Rodgers et al, 1990; i.v. 25 mg/kg; 26 hrs; Rhesus monkeys (new-born); cited from earlier work
[11] = literature in vivo studies; rats, mice, monkeys; i.v., i.p., sub-cutaneous; cited from earlier work
[12] = −20° C., protected from light and humidity; cited from earlier work
[13] = test system: eosinophils; assay: TUNEL method, DNA fragmentation in situ in eosinophils; format: cell-based, human; details: IL-5 (lpM) and ZnPP-IX (10 μM); 48 hours
Experimental: The TUNEL method makes it possible to visualise the apoptotic nuclei containing the fragmented DNA. Its assumption rests on the enzymatic fixation of a fluorescent marker (Fluoresceine-12-dUTP) at the free extremities of the DNA (3′-OH DNA). This technique consists of the cells in each well being cytocentrifuged then fixed by formaldehyde solution at 4% (25 min at 4° C.). After washing, the preparations are made permeable by a solution of Triton X-100 0.2% (5 min at 20° C.). The cells are incubated (1 hr at 37° C.) in the presence of a solution containing fluoresceine-12-dUTP and the enzyme TdT (terminal deoxynucleotidal transferase). The reaction is […] in a stopping solution. After mounting under a coverglass, the preparation is visualized under the fluorescence microscope (Apoptosis Detection System Fluorescein. Promega, Madison, Wis., USA).
In the presence of IL-5 and the control solution, there is no marking of the nuclei.

[14] = test system: cerebral ischemia; details: i.p. 50 mg/kg, 24 hrs, adult rats, cited from earlier work
[15] = test system: eosinophils; details: in vitro; cited from earlier work

C=CC1=C(C)c2cc3[n-]c(cc4[n-]c(cc5nc(cc1n2)C(C)=C5C=C)c(C)c4CCC(=O)O)c(CCC(=O)O)c3C.[Zn+2] [ZnPP-IX, Zinc-Protoporphyrin IX]
Pharmacological effects [1]: Anti-inflammatory effect
Pharmacological effects (hyperbilirubinemia due to iatrogenic hemolysis) [2]: Reduces hyperbilirubinemia due to
Pharmacological effects (inhibition of intestinal, splenic and hepatic hemoxygenesis) [3]: No inhibitory effect on intestinal,
Inflammatory infiltrate in peritoneal wash [4]: reduces the inflammatory infiltrate
Number of eosinophils in the tissues [4]: large decrease
Pharmacological effects [5]: Reduces neonatal jaundice
Apoptosis of eosinophils (percentage of apoptotic eosinophils) ([6]; 24 hrs): 45 ± 15
Apoptosis of eosinophils (percentage of apoptotic eosinophils) ([6]; 48 hrs): 99 ± 1
Activity on the survival and apoptosis of the eosinophils (FIG. 2) ([6]; average of two representative experiments): dosedependant activity
Induction of the apoptosis of eosinophils ([6]; in stronger concentrations of IL5 (10 pM)): induces the apoptosis of eosinophils
Effect on apoptosis of the eosinophils ([6]; in the absence of IL-5): accelerates the apoptosis
Number of apoptotic cells ([6]; 24 hrs): very small
Number of apoptotic cells ([6]; 48 hrs): practically all the cells are apoptotic
Apoptosis of eosinophils (percentage of apoptotic eosinophils) ([6]; time 0): 0
Pharmacological effects (phototoxicity) [7]: No phototoxic effect
Pharmacological effects [8]: Reduces neonatal jaundice
Pharmacological effects (steroidogenesis) [9]: No effect on steroidogenesis
Pharmacological effects [10]: Reduces neonatal jaundice
Toxicity in animals [11]: No toxicity has been reported; also recorded: No harmful effects were revealed
Storage stability [12]: at least 1 year
Marking of apoptotic nuclei by the TUNEL method [13]: appear marked
Pharmacological effects ([14]; Kadoya et al, 1995): Protects from cerebral ischemia
Pharmacological effects ([14]; Zhao et al, 1996): Protects from cerebral ischemia

CCN(CC)CC(=O)Nc1c(C)cccc1C [lidocaine]
Survival of eosinophils [15]: reduce the survival of eosinophils

IL-5: Cytokine used as survival factor for the eosinophils in culture
Apoptosis of eosinophils (percentage of apoptotic eosinophils) ([6]; 24 hrs): 2 ± 2
Apoptosis of eosinophils (percentage of apoptotic eosinophils) ([6]; 48 hrs): 2 ± 1
Apoptosis of eosinophils (percentage of apoptotic eosinophils) ([6]; time 0): 0
